Patent US20240400564A1 (Syndax Pharmaceuticals, Inc, priority 2021, published 2024)
pIC50: −log10 of the molar value.

System: MLLr leukemia cell line MV4-11
Assay: Cell proliferation assay MV4;11 (CellTiter-Glo, 72 hours)
Assay type: cell-based
Conditions: Homo sapiens; MV4-11 cells, 72 hours, CellTiter-Glo; read-out: MV4; 11 IC50
Method: Compounds were evaluated for its capacity to inhibit the proliferation of the MLLr leukemia cell line MV4-11 that harbors an MLL1-AF4 fusion protein. MV4-11 cells were cultured for 72 hours with limiting dilutions of compounds and viability was measured using CellTiter-Glo.
Compounds were dissolved to obtain as 10 mM solution in DMSO. The stock was diluted 1:5 to the top concentration of 2 mM in 100% DMSO. For IC50 determination, serial 1:3.16 dilutions were prepared in 100% DMSO by diluting 20 μL into 43.5 μL of DMSO for 8 concentrations. Each prepared DMSO solution were further diluted 1:500 in the cell culture media to obtain the 2× dosing solutions. The final concentrations of tested compounds in the cell culture media ranged from 0.632 nM to 2000 nM.
MV4-11 cells were cultured in IMDM with 10% FBS and 1× Penicillin-Streptomycin at 5% CO2 and 37° C. A cell suspension was prepared containing 15,000 cells/ml in the culture medium and 100 μL of this suspension was added per well to a 96-well cell culture plate. Then, 100 μL of 2× dosing media containing test compounds were added bringing the total volume to 200 μL. These cells were cultured for 72 hours at 37° C. and 5% CO2 in a humidified incubator.
After 72 hours, the cultured cells were mixed and 100 μL was transferred to a 96-well black plate. Cell Titer Glo (100 μl) was then added to this plate. The plate was mixed with shaking for 15 mins at RT, the luminescence was then measured using Tecan Spark 20M spectrophotometer. Cell Viability (%) was determined by RLU of test/RLU average vehicle control*100 and % max inhibition was determined by 100−(% cell viability remaining at the top concentration of compound).

Compound	pIC50
COC[C@@H]1CCCN1S(=O)(=O)N[C@@H]1CC[C@@H](CN2CCC3(CC2)CN(c2ncncc2Oc2ccc(F)cc2C(=O)N(C(C)C)C(C)C)C3)OC1 [Example 213, 5-Fluoro-N,N-diisopropyl-2-((4-(7-(((2S,5R)-5-(((S)-2-(methoxymethyl)pyrrolidine)-1-sulfonamido)tetrahydro-2H-pyran-2-yl)methyl)-2,7-diazaspiro[3.5]nonan-2-yl)pyrimidin-5-yl)oxy)benzamide]	> 7.00
CN=S(=O)(N[C@@H]1CC[C@@H](CN2CCC3(CC2)CN(c2ncncc2Oc2ccc(F)cc2C(=O)N(C(C)C)C(C)C)C3)OC1)c1ccccc1 (stereo partly drawn) [Example 232, 5-Fluoro-N,N-diisopropyl-2-((4-(7-(((2S,5R)-5-(N′-methylphenylsulfonoamidimidamido)tetrahydro-2H-pyran-2-yl)methyl)-2,7-diazaspiro[3.5]nonan-2-yl)pyrimidin-5-yl)oxy)benzamide]	6.00 to 7.00
CC(C)N(C(=O)c1cc(F)ccc1Oc1cncnc1N1CC2(CCN(C[C@@H]3CC[C@@H](NS(=N)(=O)C4CC4)CO3)CC2)C1)C(C)C (stereo partly drawn) [Example 233, 2-((4-(7-(((2S,5R)-5-(Cyclopropanesulfonoamidimidamido)tetrahydro-2H-pyran-2-yl)methyl)-2,7-diazaspiro[3.5]nonan-2-yl)pyrimidin-5-yl)oxy)-5-fluoro-N,N-diisopropylbenzamide]	> 7.00
Cc1ncc(S(=O)(=O)N[C@@H]2CC[C@@H](CN3CCC4(CC3)CN(c3ncncc3Oc3ccc(F)cc3C(=O)N(C(C)C)C(C)C)C4)OC2)[nH]1 [Example 234, 5-Fluoro-N,N-diisopropyl-2-((4-(7-(((2S,5R)-5-((2-methyl-1H-imidazole)-5-sulfonamido)tetrahydro-2H-pyran-2-yl)methyl)-2,7-diazaspiro[3.5]nonan-2-yl)pyrimidin-5-yl)oxy)benzamide]	> 7.00
CC(C)N(CC(F)F)C(=O)c1cc(F)ccc1Oc1cncnc1N1CC2(CCN(C[C@@H]3CC[C@@H](NS(=O)(=O)N4CC(OCc5ccccc5)C4)CO3)CC2)C1 [Example 236, 2-((4-(7-(((2S,5R)-5-((3-(Benzyloxy)azetidine)-1-sulfonamido)tetrahydro-2H-pyran-2-yl)methyl)-2,7-diazaspiro[3.5]nonan-2-yl)pyrimidin-5-yl)oxy)-N-(2,2-difluoroethyl)-5-fluoro-N-isopropylbenzamide]	> 7.00
CC(C)N(CC(F)F)C(=O)c1cc(F)ccc1Oc1cncnc1N1CC2(CCN(C[C@@H]3CC[C@@H](NS(=O)(=O)N4CC(O)C4)CO3)CC2)C1 [Example 237, N-(2,2-Difluoroethyl)-5-fluoro-2-((4-(7-(((2S,5R)-5-((3-hydroxyazetidine)-1-sulfonamido)tetrahydro-2H-pyran-2-yl)methyl)-2,7-diazaspiro[3.5]nonan-2-yl)pyrimidin-5-yl)oxy)-N-isopropylbenzamide]	> 7.00
CC(C)N(CC(F)F)C(=O)c1cc(F)ccc1Oc1cncnc1N1CC2(CCN(C[C@@H]3CC[C@@H](NS(=O)(=O)N(C)CCOCc4ccccc4)CO3)CC2)C1 [Example 238]	> 7.00
CCS(=O)(=O)N[C@@H]1CC[C@@H](CN2CCC3(CC2)CN(c2ncncc2Oc2ccc(F)cc2C(=O)N(C(C)C)[C@H]2[C@@H]4COC[C@@H]42)C3)OC1 [Example 253, N-((1R,5S,6r)-3-Oxabicyclo[3.1.0]hexan-6-yl)-2-((4-(7-(((2S,5R)-5-(ethylsulfonamido)tetrahydro-2H-pyran-2-yl)methyl)-2,7-diazaspiro[3.5]nonan-2-yl)pyrimidin-5-yl)oxy)-5-fluoro-N-isopropylbenzamide]	6.00 to 7.00
CCS(=O)(=O)N[C@@H]1CC[C@@H](CN2CCC3(CC2)CN(c2ncncc2Oc2ccc(F)cc2C(=O)N(C(C)C)[C@H]2C[C@H](O)C2)C3)OC1 [Example 259, 2-((4-(7-(((2S,5R)-5-(Ethylsulfonamido)tetrahydro-2H-pyran-2-yl)methyl)-2,7-diazaspiro[3.5]nonan-2-yl)pyrimidin-5-yl)oxy)-5-fluoro-N-((1r,3r)-3-hydroxycyclobutyl)-N-isopropylbenzamide]	> 7.00

Other lines, results leading:

pIC50	Compound
> 7.00	CCN(C(=O)c1cc(F)ccc1Oc1cncnc1N1CC2(CCN(C[C@@H]3CC[C@@H](NS(=O)(=O)c4cnn(C)c4)CO3)CC2)C1)C(C)C [Example 68, N-Ethyl-5-fluoro-N-isopropyl-2-((4-(7-(((2S,5R)-5-((1-methyl-1H-pyrazole)-4-sulfonamido)tetrahydro-2H-pyran-2-yl)methyl)-2,7-diazaspiro[3.5]nonan-2-yl)pyrimidin-5-yl)oxy)benzamide]
> 7.00	CC(C)N(CC(F)F)C(=O)c1cc(F)ccc1Oc1nncnc1N1CC2(CCN(C[C@@H]3CC[C@@H](NS(=O)(=O)c4cnn(C)c4)CO3)CC2)C1 [Example 187, N-(2,2-Difluoroethyl)-5-fluoro-N-isopropyl-2-((5-(7-(((2S,5R)-5-((1-methyl-1H-pyrazole)-4-sulfonamido)tetrahydro-2H-pyran-2-yl)methyl)-2,7-diazaspiro[3.5]nonan-2-yl)-1,2,4-triazin-6-yl)oxy)benzamide]
> 7.00	CC(C)N(CC(F)(F)F)C(=O)c1cc(F)ccc1Oc1nncnc1N1CC2(CCN(C[C@@H]3CC[C@@H](NS(=O)(=O)c4cnn(C)c4)CO3)CC2)C1 [Example 192, 5-Fluoro-N-isopropyl-2-((5-(7-(((2R,5S)-5-((1-methyl-1H-pyrazole)-4-sulfonamido)tetrahydro-2H-pyran-2-yl)methyl)-2,7-diazaspiro[3.5]nonan-2-yl)-1,2,4-triazin-6-yl)oxy)-N-(2,2,2-trifluoroethyl)benzamide]
> 7.00	CC(C)N(C(=O)c1cc(F)ccc1Oc1nncnc1N1CC2(CCN(C[C@@H]3CC[C@@H](NS(=O)(=O)c4cnn(C)c4)CO3)CC2)C1)C(C)C [Example 197, 5-Fluoro-N,N-diisopropyl-2-((5-(7-(((2S,5R)-5-((1-methyl-1H-pyrazole)-4-sulfonamido)tetrahydro-2H-pyran-2-yl)methyl)-2,7-diazaspiro[3.5]nonan-2-yl)-1,2,4-triazin-6-yl)oxy)benzamide]
> 7.00	CC(C)N(C(=O)c1cc(F)ccc1Oc1cncnc1N1CC2(CCN(C[C@@H]3CC[C@@H](NS(=O)(=O)N4CCC[C@H]4C)CO3)CC2)C1)[C@@H]1CCOC1 [Example 204, 5-Fluoro-N-isopropyl-2-((4-(7-(((2S,5R)-5-(((R)-2-methylpyrrolidine)-1-sulfonamido)tetrahydro-2H-pyran-2-yl)methyl)-2,7-diazaspiro[3.5]nonan-2-yl)pyrimidin-5-yl)oxy)-N-((R)-tetrahydrofuran-3-yl)benzamide]
> 7.00	CC(C)N(C(=O)c1cc(F)ccc1Oc1cncnc1N1CC2(CCN(C[C@@H]3CC[C@@H](NS(=O)(=O)N4CCC[C@@H]4C)CO3)CC2)C1)[C@@H]1CCOC1 [Example 205, 5-Fluoro-N-isopropyl-2-((4-(7-(((2S,5R)-5-(((S)-2-methylpyrrolidine)-1-sulfonamido)tetrahydro-2H-pyran-2-yl)methyl)-2,7-diazaspiro[3.5]nonan-2-yl)pyrimidin-5-yl)oxy)-N-((R)-tetrahydrofuran-3-yl)benzamide]
> 7.00	CC(C)N(C(=O)c1cc(F)ccc1Oc1cncnc1N1CC2(CCN(C[C@@H]3CC[C@@H](NS(=O)(=O)N4CCC[C@@H]4C)CO3)CC2)C1)C1CCOC1 (stereo partly drawn) [Example 206, 5-Fluoro-N-isopropyl-2-((4-(7-(((2S,5R)-5-(((S)-2-methylpyrrolidine)-1-sulfonamido)tetrahydro-2H-pyran-2-yl)methyl)-2,7-diazaspiro[3.5]nonan-2-yl)pyrimidin-5-yl)oxy)-N-((S)-tetrahydrofuran-3-yl)benzamide]
> 7.00	CC(C)N(C(=O)c1cc(F)ccc1Oc1cncnc1N1CC2(CCN(C[C@@H]3CC[C@@H](NS(=O)(=O)N4CCC[C@H]4C)CO3)CC2)C1)C1CCOC1 (stereo partly drawn) [Example 207, 5-Fluoro-N-isopropyl-2-((4-(7-(((2S,5R)-5-(((R)-2-methylpyrrolidine)-1-sulfonamido)tetrahydro-2H-pyran-2-yl)methyl)-2,7-diazaspiro[3.5]nonan-2-yl)pyrimidin-5-yl)oxy)-N-((S)-tetrahydrofuran-3-yl)benzamide]
> 7.00	COC[C@H]1CCCN1S(=O)(=O)N[C@@H]1CC[C@@H](CN2CCC3(CC2)CN(c2ncncc2Oc2ccc(F)cc2C(=O)N(C(C)C)C(C)C)C3)OC1 [Example 212, 5-Fluoro-N,N-diisopropyl-2-((4-(7-(((2S,5R)-5-(((R)-2-(methoxymethyl)pyrrolidine)-1-sulfonamido)tetrahydro-2H-pyran-2-yl)methyl)-2,7-diazaspiro[3.5]nonan-2-yl)pyrimidin-5-yl)oxy)benzamide]

Target: hERG (Homo sapiens, UniProt Q12809)
Assay: Patch clamp assay (hERG tail currents, whole-cell)
Conditions: 10 μM compound

Chain of hERG (Q12809 whole entry): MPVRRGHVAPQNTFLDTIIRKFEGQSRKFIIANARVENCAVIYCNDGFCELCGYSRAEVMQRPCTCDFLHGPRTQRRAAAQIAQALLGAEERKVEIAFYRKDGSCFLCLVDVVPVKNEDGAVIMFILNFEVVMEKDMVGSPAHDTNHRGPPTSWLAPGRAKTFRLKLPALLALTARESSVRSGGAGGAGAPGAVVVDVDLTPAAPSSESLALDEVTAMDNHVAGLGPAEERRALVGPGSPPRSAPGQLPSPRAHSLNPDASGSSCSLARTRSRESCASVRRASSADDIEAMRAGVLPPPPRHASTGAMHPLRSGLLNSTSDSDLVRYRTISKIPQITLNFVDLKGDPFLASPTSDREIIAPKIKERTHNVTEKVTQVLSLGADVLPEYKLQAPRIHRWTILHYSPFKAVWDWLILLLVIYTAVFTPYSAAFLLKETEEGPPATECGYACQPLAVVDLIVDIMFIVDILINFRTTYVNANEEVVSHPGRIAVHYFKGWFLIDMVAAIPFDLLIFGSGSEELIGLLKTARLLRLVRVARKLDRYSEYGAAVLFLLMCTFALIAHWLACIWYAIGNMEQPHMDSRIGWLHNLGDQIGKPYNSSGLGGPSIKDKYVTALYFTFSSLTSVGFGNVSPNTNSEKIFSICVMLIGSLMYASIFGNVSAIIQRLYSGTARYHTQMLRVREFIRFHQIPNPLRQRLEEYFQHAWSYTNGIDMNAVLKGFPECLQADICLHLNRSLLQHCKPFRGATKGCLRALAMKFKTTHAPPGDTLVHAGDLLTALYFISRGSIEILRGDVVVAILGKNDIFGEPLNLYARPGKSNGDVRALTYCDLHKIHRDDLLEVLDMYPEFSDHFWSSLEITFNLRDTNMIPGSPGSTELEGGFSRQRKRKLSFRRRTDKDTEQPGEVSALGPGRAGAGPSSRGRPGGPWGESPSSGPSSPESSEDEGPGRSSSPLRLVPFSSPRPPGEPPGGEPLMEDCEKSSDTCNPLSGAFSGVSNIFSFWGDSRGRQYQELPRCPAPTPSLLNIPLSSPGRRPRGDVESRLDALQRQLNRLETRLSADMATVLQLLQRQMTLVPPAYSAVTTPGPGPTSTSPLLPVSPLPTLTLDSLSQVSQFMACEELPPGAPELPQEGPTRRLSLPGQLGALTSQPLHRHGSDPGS

Compound	hERG % Remaining
CCN(C(=O)c1cc(F)ccc1Oc1cncnc1N1CC2(CCN(C[C@@H]3CC[C@@H](NS(=O)(=O)c4cnn(C)c4)CO3)CC2)C1)C(C)C [Example 68, N-Ethyl-5-fluoro-N-isopropyl-2-((4-(7-(((2S,5R)-5-((1-methyl-1H-pyrazole)-4-sulfonamido)tetrahydro-2H-pyran-2-yl)methyl)-2,7-diazaspiro[3.5]nonan-2-yl)pyrimidin-5-yl)oxy)benzamide]	+++ (≥66%)

Same assay, conditions: 30 μM compound

Compound	hERG % Remaining
CCN(C(=O)c1cc(F)ccc1Oc1cncnc1N1CC2(CCN(C[C@@H]3CC[C@@H](NS(=O)(=O)c4cnn(C)c4)CO3)CC2)C1)C(C)C [Example 68, N-Ethyl-5-fluoro-N-isopropyl-2-((4-(7-(((2S,5R)-5-((1-methyl-1H-pyrazole)-4-sulfonamido)tetrahydro-2H-pyran-2-yl)methyl)-2,7-diazaspiro[3.5]nonan-2-yl)pyrimidin-5-yl)oxy)benzamide]	+++ (≥66%)
